Series [1] in a line: Analgesic effect of prior-art compounds (background statement).
The conditions of series [2]: cited from earlier work.

“Also recorded” adds a separate entry of the source.

With `COc1cc(CC(=O)NC2CCCCC2)ccc1O` [drawing 3], in series [1], the analgesic effect result is “little analgesic effect”. Besides, the irritancy entry in series [2] (Arzneim.-Forsch., 25, 1877 (1975)) is “a little lower irritancy than capsaicin”. Besides, the “stimulatory effect and desensitization” value in series [2] (Arzneim.-Forsch., 26, 33 (1976)) was “strong stimulatory; also recorded: weak desensitization”.

The values above are taken from US7767854B2, “N-substituted phenylacetamide derivative and pharmaceutical composition containing the same” (Dainippon Sumitomo Pharma Co., Ltd., priority 2005, dated 2010).
